Here are results for 28 compounds from ChEMBL document CHEMBL1146806, “Halothiophene benzimidazoles as P1 surrogates of inhibitors of blood coagulation factor Xa” (Bioorg Med Chem Lett, 2004).

Data set [1] is described as follows: Oral bioavailability in rat. The data set is classed as ADME, organism-based. The settings on record: in vivo.
Data set [2] can be described thus: Oral bioavailability in dog. The data set is classed as ADME, organism-based, Canis lupus familiaris. The following applies: in vivo.
The next data set has as its target Prothrombin (Homo sapiens, UniProt P00734). Briefly: Binding affinity against human thrombin.
The target in another data set is Serine protease 1 (Homo sapiens, UniProt P07477). In words: Binding affinity of the compoumd against human trypsin was determined.
Sequence of Serine protease 1 (P07477 whole entry): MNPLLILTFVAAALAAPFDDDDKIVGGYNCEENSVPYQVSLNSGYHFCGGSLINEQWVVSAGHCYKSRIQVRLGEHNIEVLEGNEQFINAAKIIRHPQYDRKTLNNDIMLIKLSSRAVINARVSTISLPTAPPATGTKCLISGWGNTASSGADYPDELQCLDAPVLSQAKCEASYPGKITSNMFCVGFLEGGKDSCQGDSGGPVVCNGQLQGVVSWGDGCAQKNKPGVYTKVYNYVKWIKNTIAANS
Data set [3] is described as follows: Solubility in pH 7.0 phosphate buffer. The data set is classed as physicochemical.
The next data set addresses Coagulation factor X (Homo sapiens, UniProt P00742). In words: Binding affinity of the compoumd to human coagulation factor Xa.
A further data set has as its target Trypsin (Homo sapiens, UniProt P07477+P07478+P35030). Briefly: Binding affinity against human trypsin. The data set is classed as protein assay.

The structures appear in SMILES notation.

Sequence of Coagulation factor X (P00742 41-179 limits assumed): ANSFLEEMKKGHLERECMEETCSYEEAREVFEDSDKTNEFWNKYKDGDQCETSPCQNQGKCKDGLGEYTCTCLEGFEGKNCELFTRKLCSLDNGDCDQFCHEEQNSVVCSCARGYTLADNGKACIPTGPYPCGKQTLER
Sequence of Coagulation factor X (P00742 235-488 limits assumed): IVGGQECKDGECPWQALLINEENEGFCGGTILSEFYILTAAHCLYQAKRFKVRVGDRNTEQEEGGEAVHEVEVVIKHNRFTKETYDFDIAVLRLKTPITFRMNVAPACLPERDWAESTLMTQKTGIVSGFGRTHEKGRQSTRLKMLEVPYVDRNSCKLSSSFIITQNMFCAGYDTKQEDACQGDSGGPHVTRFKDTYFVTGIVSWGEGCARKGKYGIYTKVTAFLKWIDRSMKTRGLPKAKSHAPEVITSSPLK

The bioavailability is the share of a dose that reaches the circulation, judged against a reference dose that is usually intravenous. For orientation: IC50 means the midpoint of a concentration-inhibition curve. Higher therefore signals lower potency. As usually defined, the solubility is the concentration that dissolves in the medium under given conditions. In the case of `CCC[C@@H](NC(=O)Nc1ccc(Cl)cc1)C(=O)Nc1ccc(N2CCOCC2=O)cc1`, the bioavailability in data set [1] and in data set [2] was less than 20% each time. Also, the IC50 at Prothrombin and on Serine protease 1 was more than 10 µM in each case. In data set [3], the solubility was less than 10 µg/mL.
`O=C(CCc1ccc2[nH]c(-c3ccc(Cl)s3)nc2c1)Nc1ccc(-n2ccccc2=O)c(F)c1`: the bioavailability in data set [1] and in data set [2] was less than 20% throughout. The IC50 was 0.0076 µM on Coagulation factor X, more than 10 µM at Prothrombin and more than 10 µM at Serine protease 1. The compound further displayed a solubility in data set [3] of less than 10 µg/mL.
With `Cc1cc(NC(=O)CCc2ccc3[nH]c(-c4ccc(Br)s4)nc3c2)ccc1N1CCOCC1=O`, the IC50 is more than 10 µM at Trypsin, 0.0084 µM on Coagulation factor X and more than 10 µM on Prothrombin. The bioavailability in data set [1] and in data set [2] was less than 20% in each case. The solubility in data set [3] is less than 10 µg/mL.
With `Cc1cc(NC(=O)COc2ccc3[nH]c(-c4ccc(Cl)s4)nc3c2)ccc1N1CCOCC1=O`, the results for the IC50 on Trypsin, at Coagulation factor X and at Prothrombin were more than 10 µM, 0.02 µM and more than 10 µM, respectively. Further, the bioavailability in data set [1] and in data set [2] was less than 20% each time. This compound came in with a solubility in data set [3] of less than 10 µg/mL.
In the case of `O=C(COc1ccc2[nH]c(-c3ccc(Cl)s3)nc2c1)Nc1ccc(N2CCOCC2=O)cc1`, the bioavailability in data set [1] and in data set [2] was less than 20% in each case. This compound had an IC50 at Coagulation factor X of 0.15 µM. In addition, in data set [3], the solubility is less than 10 µg/mL.
`Cc1cc(NC(=O)CCc2ccc3[nH]c(-c4ccc(Cl)s4)nc3c2)ccc1N1CCOCC1=O`: the IC50 at Trypsin was more than 10 µM; at Coagulation factor X, 0.0082 µM; on Prothrombin, more than 10 µM. Moreover, the bioavailability in data set [1] and in data set [2] was less than 20% each time. Moreover, the solubility in data set [3] is less than 10 µg/mL.
Consider `CC1CC(=O)NN=C1c1ccc2[nH]c(-c3ccc(Br)s3)nc2c1` (centres undefined), for which the bioavailability in data set [1] and in data set [2] was less than 20% in each case. Also, the values for the IC50 on Coagulation factor X, at Prothrombin and on Serine protease 1 were 0.98 µM, more than 10 µM and more than 10 µM, respectively. For the same compound, the solubility in data set [3] is less than 10 µg/mL.
For `O=C(Cc1ccc(N2CCOCC2=O)cc1)Nc1ccc2[nH]c(-c3ccc(Cl)s3)nc2c1`, the IC50 on Trypsin is more than 10 µM; on Coagulation factor X, 1.2 µM; at Prothrombin, more than 10 µM. The bioavailability in data set [1] and in data set [2] was less than 20% throughout. The solubility in data set [3] was less than 10 µg/mL.
Turning to `O=C(Cc1ccc2[nH]c(-c3ccc(Br)s3)nc2c1)NCC1CCN(c2ccncc2)CC1`, the results for the half-inhibitory concentration (IC50) on Trypsin, at Coagulation factor X and at Prothrombin were more than 10 µM, 0.0052 µM and more than 10 µM, respectively. Further, the bioavailability in data set [1] and in data set [2] was less than 20% in each case. For the same compound, in data set [3], the solubility is less than 10 µg/mL.
Take `O=C(Cc1ccc2[nH]c(-c3ccc(Cl)s3)nc2c1)Nc1ccc(N2CCCCC2=O)cc1`: the IC50 is more than 10 µM on Trypsin, 0.26 µM on Coagulation factor X and more than 10 µM at Prothrombin. In addition, the bioavailability in data set [1] and in data set [2] was less than 20% each time. This compound yielded a solubility in data set [3] of less than 10 µg/mL.
Take `O=C(Cc1ccc2[nH]c(-c3ccc(Cl)s3)nc2c1)Nc1ccc(N2CCCC2=O)cc1`: the IC50 on Trypsin is more than 10 µM; on Coagulation factor X it was 0.53 µM; on Prothrombin it was more than 10 µM. Further, the bioavailability in data set [1] and in data set [2] was less than 20% throughout. The solubility in data set [3] was less than 10 µg/mL.
`O=C(NCc1ccc2[nH]c(-c3ccc(Cl)s3)nc2c1)c1ccc(N2CCOCC2=O)cc1`: the IC50 on Trypsin was more than 10 µM; on Coagulation factor X, 0.44 µM; on Prothrombin, more than 10 µM. Also, the bioavailability in data set [1] and in data set [2] was less than 20% throughout. In addition, the solubility in data set [3] is less than 10 µg/mL.
Turning to `O=C(CCc1ccc2nc(-c3ccc(Br)s3)[nH]c2c1)NCC1CCN(c2ccncc2)CC1`, the bioavailability in data set [1] and in data set [2] was less than 20% each time. Further, the IC50 on Coagulation factor X was found to be 0.058 µM. The solubility in data set [3] is less than 10 µg/mL.
Consider `O=C(CNC(=O)Nc1ccc(Cl)cc1)Nc1ccc(N2CCOCC2=O)cc1`, for which the bioavailability in data set [1] and in data set [2] was less than 20% each time. Also, the values for the IC50 at Coagulation factor X, on Prothrombin and at Serine protease 1 were 0.032 µM, more than 10 µM and more than 10 µM, respectively. The compound also came in with a solubility in data set [3] of less than 10 µg/mL.
Turning to `O=C(CCc1ccc2nc(-c3ccc(Cl)s3)[nH]c2c1)Nc1ccc(N2CCOCC2=O)cc1F`, the bioavailability in data set [1] and in data set [2] was less than 20% throughout. The IC50 at Prothrombin and at Serine protease 1 was more than 10 µM throughout. Besides, in data set [3], the solubility was less than 10 µg/mL.
Regarding `O=C(CCc1ccc2[nH]c(-c3ccc(Cl)s3)nc2c1)Nc1ccc(N2CCOCC2=O)c(Cl)c1`, the bioavailability in data set [1] and in data set [2] was less than 20% throughout. Also, the IC50 was 0.007 µM at Coagulation factor X, more than 10 µM at Prothrombin and more than 10 µM at Serine protease 1. For the same compound, the solubility in data set [3] is less than 10 µg/mL.
Turning to `O=C(Cc1ccc2[nH]c(-c3ccc(Cl)s3)nc2c1)Nc1ccc(N2CCOCC2=O)cc1`, the IC50 at Trypsin and at Prothrombin was more than 10 µM each time. Also, the bioavailability in data set [1] and in data set [2] was less than 20% in each case. In data set [3], this compound had a solubility of less than 10 µg/mL.
Take `O=C(Nc1ccc(N2CCOCC2=O)cc1)c1ccc2[nH]c(-c3ccc(Cl)s3)nc2c1`: the IC50 at Trypsin and at Prothrombin was more than 10 µM each time. In addition, the bioavailability in data set [1] and in data set [2] was less than 20% in each case. This compound also registered a solubility in data set [3] of less than 10 µg/mL.
`O=C(CCc1ccc2[nH]c(-c3ccc(Cl)s3)nc2c1)Nc1ccc(N2CCOCC2=O)cc1`: the bioavailability in data set [1] and in data set [2] was less than 20% in each case. In addition, the solubility in data set [3] was less than 10 µg/mL.
As for `O=C(Cc1ccc2[nH]c(-c3ccc(Cl)s3)nc2c1)NCC1CCN(c2ccncc2)CC1`, the IC50 at Trypsin was more than 10 µM; at Coagulation factor X it was 0.014 µM; at Prothrombin, more than 10 µM. Further, the bioavailability in data set [1] and in data set [2] was less than 20% throughout. In data set [3], this compound gave a solubility of less than 10 µg/mL.
With `O=C(Cc1ccc2[nH]c(-c3ccc(Cl)s3)nc2c1)NCc1ccc(N2CCOCC2=O)cc1`, the bioavailability in data set [1] and in data set [2] was less than 20% each time. The compound also returned an IC50 at Coagulation factor X of 0.17 µM. This compound registered a solubility in data set [3] of less than 10 µg/mL.
Turning to `CS(=O)(=O)c1ccccc1-c1ccc(NC(=O)Cc2ccc3[nH]c(-c4ccc(Cl)s4)nc3c2)cc1`, the IC50 at Trypsin and on Prothrombin was more than 10 µM in each case. Also, the bioavailability in data set [1] and in data set [2] was less than 20% throughout. In data set [3], the solubility is less than 10 µg/mL.
Consider `CC1CC(=O)NN=C1c1ccc2[nH]c(-c3ccc(Cl)s3)nc2c1` (centres undefined), for which the IC50 on Trypsin and on Prothrombin was more than 10 µM throughout. For the same compound, the bioavailability in data set [1] and in data set [2] was less than 20% throughout. In data set [3], this compound had a solubility of less than 10 µg/mL.
With `Cc1cc(NC(=O)Cc2ccc3[nH]c(-c4ccc(Cl)s4)nc3c2)ccc1-n1ccccc1=O`, the bioavailability in data set [1] and in data set [2] was less than 20% throughout. In addition, the IC50 on Coagulation factor X came out at 0.18 µM. This compound returned a solubility in data set [3] of less than 10 µg/mL.
As for `Cc1cc(NC(=O)Cc2ccc3[nH]c(-c4ccc(Cl)s4)nc3c2)ccc1N1CCOCC1=O`, the bioavailability in data set [1] and in data set [2] was less than 20% each time. Moreover, in data set [3], the solubility is less than 10 µg/mL.
`N=C(N)c1cccc(N[C@H](C(=O)Nc2ccc(N3CCCCC3=O)cc2)c2ccccc2)c1`: the bioavailability in data set [1] and in data set [2] was less than 20% throughout. The compound further gave an IC50 at Coagulation factor X of 0.015 µM. The solubility in data set [3] was less than 10 µg/mL.
Take `O=C(Cc1ccc2[nH]c(-c3ccc(Br)s3)nc2c1)Nc1ccc(-n2ccccc2=O)cc1`: the IC50 on Trypsin is more than 10 µM; at Coagulation factor X, 0.063 µM; on Prothrombin, more than 10 µM. The bioavailability in data set [1] and in data set [2] was less than 20% each time. Also, the solubility in data set [3] is less than 10 µg/mL.
For the compound `Cc1cc(NC(=O)Cc2ccc3[nH]c(-c4ccc(Br)s4)nc3c2)ccc1N1CCOCC1=O`, the bioavailability in data set [1] and in data set [2] was less than 20% each time. On Coagulation factor X, this compound yielded an IC50 of 0.041 µM. In data set [3], this compound showed a solubility of less than 10 µg/mL.
